Results as given in PubChem BioAssay (NCI).
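Results reflect a 48-hour exposure of cells in 96-well plates to compound at five concentrations. TGI is the concentration that stops growth completely.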

Tests used:
Test in all cases: NCI anticancer screen, dose series, 48 h
[1] = system: MOLT-4 leukemia
[2] = system: LOX IMVI melanoma
[3] = system: HCC-2998 colon
[4] = system: OVCAR-5 ovarian
[5] = system: NCI-H460 lung
[6] = system: HOP-62 NSCLC
[7] = system: RPMI-8226 leukemia
[8] = system: MDA-N
[9] = system: UACC-62 melanoma
[10] = system: A498 renal
[11] = system: SF-539 CNS
[12] = system: SR leukemia
[13] = system: SK-OV-3 ovarian
[14] = system: K-562 leukemia
[15] = system: HL-60(TB) leukemia
[16] = system: OVCAR-4 ovarian
[17] = system: MCF7 breast
[18] = system: MALME-3M melanoma
[19] = system: PC-3 prostate
[20] = system: 786-0 renal
[21] = system: T-47D breast
[22] = system: SW-620 colon
[23] = system: RXF 393 renal
[24] = system: NCI-H226 lung
[25] = system: SK-MEL-5 melanoma
[26] = system: HT29 colon
[27] = system: NCI/ADR-RES ovarian
[28] = system: HS 578T breast
[29] = system: CAKI-1 renal
[30] = system: SNB-19 CNS
[31] = system: HOP-92 NSCLC
[32] = system: UO-31 renal
[33] = system: MDA-MB-435
[34] = system: U251 CNS
[35] = system: A549 NSCLC
[36] = system: HCT-15 colon
[37] = system: ACHN renal
[38] = system: NCI-H23 lung
[39] = system: IGROV1 ovarian
[40] = system: SF-268 CNS
[41] = system: SF-295 CNS
[42] = system: SK-MEL-28 melanoma
[43] = system: OVCAR-3 ovarian
[44] = system: EKVX NSCLC
[45] = system: SK-MEL-2 melanoma
[46] = system: UACC-257 melanoma
[47] = system: TK-10 renal
[48] = system: HCT-116 colon
[49] = system: COLO 205 colon
[50] = system: MDA-MB-231 breast
[51] = system: NCI-H522 lung
[52] = system: SN12C renal
[53] = system: DU-145 prostate
[54] = system: KM12 colon
[55] = system: OVCAR-8 ovarian
[56] = system: SNB-75 CNS
[57] = system: CCRF-CEM leukemia
[58] = system: M14 melanoma

Measured: TGI

C[C@@H]1C(O)CC[C@H](C)C12CC=CC2=O (some centres undefined)
not listed: [54] | [55] | [56] | [57] | [58]
> 100 µM: all other assays above

S=C(Nc1ccc(Br)cn1)NC12CC3CC(CC(C3)C1)C2
21.3 µM: [20]
55.7 µM: [27]
47.7 µM: [8]
35.3 µM: [48]
65 µM: [44]
56.1 µM: [37]
40.8 µM: [56]
38.9 µM: [38]
30.2 µM: [39]
58 µM: [50]
67.6 µM: [1] | [13]
37 µM: [23]
83.3 µM: [3]
51.7 µM: [45]
43.4 µM: [9]
25.9 µM: [55] | [30]
37.5 µM: [51]
34.5 µM: [40]
49.5 µM: [41]
30 µM: [34]
53.5 µM: [35]
58.9 µM: [18]
64.8 µM: [24]
70.3 µM: [57]
33.7 µM: [11]
43.2 µM: [19]
26.4 µM: [31]
90.7 µM: [4]
not listed: [2] | [15] | [25] | [26] | [28] | [47] | [52]
> 100 µM: all other assays above
